Test results reported in patent EP4799620A1, “ORAL PHARMACEUTICAL FORM FOR BIPHASIC RELEASE, COMPOSED OF A MULTIP[…], PROCESS FOR PREPARING SAME AND […] USE OF ORAL FORM” (Prati, Donaduzzi & Cia LTDA, priority 2023, dated 2025).
Where two headings read alike, the source gives them in different places.

What was measured:
[1] = system: patients with secondary insomnia; assay: Randomized, controlled, cross-over clinical trial: questionnaires and subjective sleep perception; type: in vivo; conditions: for Sleep latency / Total sleep time: subjective
Procedure: (§1) Based on the foregoing, a double-blind clinical trial was conducted to evaluate the impact of the medication on sleep quality and total sleep time, as well as to quantify the reduction in sleep latency in patients diagnosed with comorbid insomnia, through actigraphy and assessment scales.
(§2) The objective of the clinical trial was to evaluate the impact of the medication on sleep quality and total sleep time, as well as to quantify the reduction in sleep latency in patients diagnosed with comorbid insomnia, through actigraphy and assessment scales. The study was conducted with 30 patients.
TABLE 1: RESULTS OF THE ANALYSIS OF THE QUESTIONNAIRES AND OF THE SUBJECTIVE SLEEP PERCEPTION.

[2] = system: patients with secondary insomnia; assay: Randomized, controlled, cross-over clinical trial: actigraphy analysis; type: in vivo
Procedure: as §1, §2
Of the 29 patients, 24 correctly completed the proposed actigraphy usage period. TABLE 2: ACTIGRAPHY ANALYSIS RESULTS.

[3] = in water; cited from earlier work
[4] = cited from earlier work
pregnant women = conditions: 50 mg/day; 67 pregnant women; third trimester of pregnancy; cited from earlier work
[5] = system: patients with Alzheimer's disease; conditions: 50 mg/day; cited from earlier work
[6] = 50 mg/day; double-blind controlled study; cited from earlier work
postmenopausal women = conditions: trazodone 50-100 mg/day; cited from earlier work
healthy volunteers = conditions: daily doses of 50 and 100 mg; cited from earlier work

O=c1n(CCCN2CCN(c3cccc(Cl)c3)CC2)nc2ccccn12 [Trazodone]
Hamilton Depression Scale ([1]; 50 mg, Consultation 1): 16.31±8.60@#
Insomnia Severity Scale ([1]; 50 mg, Consultation 1): 19.88±4.04@#
Nights with awakenings/week ([1]; 50 mg, Consultation 1): 3.00±0.00@
Pittsburgh Sleep Quality Questionnaire ([1]; 50 mg, Consultation 1): 14.13±3.11@#
Hamilton Depression Scale ([1]; 50 mg, Consultation 2): 11.88±6.06@
Insomnia Severity Scale ([1]; 50 mg, Consultation 2): 17.69±6.18&*
Nights with awakenings/week ([1]; 50 mg, Consultation 2): 2.40±1.05
Pittsburgh Sleep Quality Questionnaire ([1]; 50 mg, Consultation 2): 11.19±2.90
Hamilton Depression Scale ([1]; 50 mg, Consultation 3): 11.13±6.98
Insomnia Severity Scale ([1]; 50 mg, Consultation 3): 11.14±7.24#&
Nights with awakenings/week ([1]; 50 mg, Consultation 3): 2.00±1.17
Hamilton Depression Scale ([1]; 50 mg, Consultation 4): 7,875±4.28
Insomnia Severity Scale ([1]; 50 mg, Consultation 4): 7.50±4.48@#
Nights with awakenings/week ([1]; 50 mg, Consultation 4): 1.06±1.39@#
Pittsburgh Sleep Quality Questionnaire ([1]; 50 mg, Consultation 4): 9.81±3.50@
Hamilton Depression Scale ([1]; 75 mg, Consultation 1): 18.31±11.41@
Insomnia Severity Scale ([1]; 75 mg, Consultation 1): 21.08±3.84@
Nights with awakenings/week ([1]; 75 mg, Consultation 1): 2.84±0.55
Pittsburgh Sleep Quality Questionnaire ([1]; 75 mg, Consultation 1): 13.54±3.43@
Hamilton Depression Scale ([1]; 75 mg, Consultation 2): 14.85±6.65
Insomnia Severity Scale ([1]; 75 mg, Consultation 2): 19.75±3.84
Nights with awakenings/week ([1]; 75 mg, Consultation 2): 3.00±0.00
Pittsburgh Sleep Quality Questionnaire ([1]; 75 mg, Consultation 2): 12.77±2.20
Hamilton Depression Scale ([1]; 75 mg, Consultation 3): 12.5±6.81
Insomnia Severity Scale ([1]; 75 mg, Consultation 3): 16.69±8.34
Nights with awakenings/week ([1]; 75 mg, Consultation 3): 2.58±0.90
Pittsburgh Sleep Quality Questionnaire ([1]; 75 mg, Consultation 3): 13.58±3.08
Hamilton Depression Scale ([1]; 75 mg, Consultation 4): 8.08±3.57@#
Insomnia Severity Scale ([1]; 75 mg, Consultation 4): 7,33±5,61@#
Nights with awakenings/week ([1]; 75 mg, Consultation 4): 1.38±1.55
Pittsburgh Sleep Quality Questionnaire ([1]; 75 mg, Consultation 4): 9.91±3.26@#
Hamilton Depression Scale ([1]; no dose stated, Consultation 1): 17,21±9,82@#
Insomnia Severity Scale ([1]; no dose stated, Consultation 1): 20.41±3.93@#
Nights with awakenings/week ([1]; no dose stated, Consultation 1): 2.93±0.37@
Pittsburgh Sleep Quality Questionnaire ([1]; no dose stated, Consultation 1): 13.86±3.21@
Hamilton Depression Scale ([1]; no dose stated, Consultation 2): 13.21±6.40&*
Insomnia Severity Scale ([1]; no dose stated, Consultation 2): 18.57±5.32&*
Nights with awakenings/week ([1]; no dose stated, Consultation 2): 2.67±0.82
Pittsburgh Sleep Quality Questionnaire ([1]; no dose stated, Consultation 2): 11.9±2.69
Hamilton Depression Scale ([1]; no dose stated, Consultation 3): 11,74±6,80#&
Insomnia Severity Scale ([1]; no dose stated, Consultation 3): 13.81±8.14#&
Nights with awakenings/week ([1]; no dose stated, Consultation 3): 2.26±1.08
Pittsburgh Sleep Quality Questionnaire ([1]; no dose stated, Consultation 3): 12.59±3.68
Hamilton Depression Scale ([1]; no dose stated, Consultation 4): 7.96±3.93@*
Insomnia Severity Scale ([1]; no dose stated, Consultation 4): 7.42±4.90@#
Nights with awakenings/week ([1]; no dose stated, Consultation 4): 1.20±1.45@#
Pittsburgh Sleep Quality Questionnaire ([1]; no dose stated, Consultation 4): 9.85±3.34@#
Sleep latency ([1]; 50mg, Consultation 1): 50.5 ± 40.46 min
Total sleep time ([1]; 50mg, Consultation 1): 273.80 ± 95.42 min
Sleep latency ([1]; 50mg, Consultation 2): 37.19 ± 20.00 min
Total sleep time ([1]; 50mg, Consultation 2): 307.50 ± 75.50 min
Sleep latency ([1]; 50mg, Consultation 3): 42,56±47,20 min.
Total sleep time ([1]; 50mg, Consultation 3): 348.80 ± 103.30 min
Sleep latency ([1]; 50mg, Consultation 4): 26.31 ± 25.20 min
Sleep latency ([1]; 75mg, Consultation 1): 93.08 ± 99.11 min
Total sleep time ([1]; 75mg, Consultation 1): 281.50 ± 128.20 min
Sleep latency ([1]; 75mg, Consultation 2): 69.69 ± 43.86 min
Total sleep time ([1]; 75mg, Consultation 2): 272.30 ± 87.00 min
Sleep latency ([1]; 75mg, Consultation 3): 63.08 ± 53.17 min
Total sleep time ([1]; 75mg, Consultation 3): 290.80 ± 72.85 min
Sleep latency ([1]; 75mg, Consultation 4): 33.85 ± 25.67 min
Total sleep time ([1]; 75mg, Consultation 4): 378.50 ± 89.61 min
Sleep latency ([1]; no dose stated, Consultation 1): 69,59±74,51@ min.
Total sleep time ([1]; no dose stated, Consultation 1): 277.20±109.20@ min.
Sleep latency ([1]; no dose stated, Consultation 2): 51.76 ± 36.18 min
Total sleep time ([1]; no dose stated, Consultation 2): 291.70 ± 81.33 min
Sleep latency ([1]; no dose stated, Consultation 3): 51.76 ± 50.13 min
Total sleep time ([1]; no dose stated, Consultation 3): 322.80 ± 94.07 min
Sleep latency ([1]; no dose stated, Consultation 4): 29,69±25,24@# min.
Total sleep time ([1]; no dose stated, Consultation 4): 341.80±110.00@ min.
Awakenings ([2]; 50mg, Actigraphy 1): 12.97±3.85@
Sleep latency ([2]; 50mg, Actigraphy 1): 6.13 ± 5.56 min
Total sleep time ([2]; 50mg, Actigraphy 1): 50mg 461.80±106.60 min.
WASO ([2]; 50mg, Actigraphy 1): 84.20 ± 26.09 min
Awakenings ([2]; 50mg, Actigraphy 2): 10.68±3.44
Sleep latency ([2]; 50mg, Actigraphy 2): 7.16 ± 7.48 min
Total sleep time ([2]; 50mg, Actigraphy 2): 479.90 ± 95.25 min
WASO ([2]; 50mg, Actigraphy 2): 75.38 ± 29.34 min
Awakenings ([2]; 50mg, Actigraphy 3): 11.35±3.59@
Sleep latency ([2]; 50mg, Actigraphy 3): 4.40 ± 4.40 min
Total sleep time ([2]; 50mg, Actigraphy 3): 476.00 ± 91.94 min
WASO ([2]; 50mg, Actigraphy 3): 73 ± 26.45 min
Awakenings ([2]; 75mg, Actigraphy 1): 12.64±2.57
Sleep latency ([2]; 75mg, Actigraphy 1): 6.77 ± 5.96 min
Total sleep time ([2]; 75mg, Actigraphy 1): 75 mg 486.00±151.70 min.
WASO ([2]; 75mg, Actigraphy 1): 82.33 ± 20.21 min
Awakenings ([2]; 75mg, Actigraphy 2): 11.37±1.56
Sleep latency ([2]; 75mg, Actigraphy 2): 5.28 ± 4.71 min
Total sleep time ([2]; 75mg, Actigraphy 2): 514.10 ± 166.50 min
WASO ([2]; 75mg, Actigraphy 2): 88.29 ± 20.62 min
Awakenings ([2]; 75mg, Actigraphy 3): 11.71±2.54£2
Sleep latency ([2]; 75mg, Actigraphy 3): 7.33 ± 7.90 min
Total sleep time ([2]; 75mg, Actigraphy 3): 498.60 ± 126.30 min
WASO ([2]; 75mg, Actigraphy 3): 83.44 ± 32.30 min
Awakenings ([2]; no dose stated, Actigraphy 1): 12.84±3.37@
Sleep latency ([2]; no dose stated, Actigraphy 1): 6.37 ± 5.60 min
Total sleep time ([2]; no dose stated, Actigraphy 1): 470.90 ± 122.70 min
WASO ([2]; no dose stated, Actigraphy 1): 84.20 ± 26.09 min
Awakenings ([2]; no dose stated, Actigraphy 2): 10.92±2.89
Sleep latency ([2]; no dose stated, Actigraphy 2): 6.47 ± 6.51 min
Total sleep time ([2]; no dose stated, Actigraphy 2): 491.90 ± 121.50 min
Awakenings ([2]; no dose stated, Actigraphy 3): 11.49±3.186@#
Sleep latency ([2]; no dose stated, Actigraphy 3): 5.50 ± 5.97 min
Total sleep time ([2]; no dose stated, Actigraphy 3): 484.50 ± 104.00 min
WASO ([2]; no dose stated, Actigraphy 3): 73.00 ± 26.45 min
pKa [3]: 6.74
solubility ([4]; above its pKa, neutral and basic conditions): very low
solubility ([4]; acidic medium, pH of the medium below its pKa): highly soluble
Sedative effects for the treatment of insomnia (pregnant women): efficacy
treatment of insomnia [5]: safe and effective
maintaining sleep [6]: effective
sleep quality and sexual dysfunction (postmenopausal women): improved
slow waves during sleep (healthy volunteers): increased

CN1CCN(C(=O)OC2c3nccnc3C(=O)N2c2ccc(Cl)cn2)CC1 (stereo not drawn) [zopiclone]
sleep quality and sexual dysfunction (postmenopausal women): improved
